Read-outs that look alike come from different tables or passages of the source.
Assays:
[1] = test system: male Wistar rats; test: Elevated plus maze; format: in vivo, rat; settings: for effect on percentage of time on open arms: post hoc p 0.032
[2] = test system: male Wistar rats; test: Morris water maze; format: in vivo, rat; settings: for platform zone entries during the probe trial: after five-day treatment at 30 mg/kg i.p.; for overall influence on water maze learning parameters (acquisition): 5 days
[3] = target: human GABAA receptor containing α4 subunit (BZ site); settings: read-out: Ki α4; second independent set of experiments
[4] = target: T1, α1β3γ2 GABAA receptors (Rattus norvegicus, UniProt P18508+P62813); settings: 100 nM, EC3 GABA, mean ± SEM; ref Rivas et al., 2009; cited from earlier work
[5] = target: T2, α2β3γ2 GABAA receptors (Rattus norvegicus, UniProt P18508+P23576); settings: 100 nM, EC3 GABA, mean ± SEM; ref Rivas et al., 2009; cited from earlier work
[6] = target: T3, α3β3γ2 GABAA receptors (Rattus norvegicus, UniProt P18508+P20236); settings: 100 nM, EC3 GABA, mean ± SEM; ref Rivas et al., 2009; cited from earlier work
[7] = target: T4, α5β3γ2 GABAA receptors (Rattus norvegicus, UniProt P18508+P19969); settings: 100 nM, EC3 GABA, mean ± SEM; ref Rivas et al., 2009; cited from earlier work
[8] = test system: male Wistar rats; test: Spontaneous locomotor activity; settings: for effect on total distance travelled during 45 min: 20 min before test, vs solvent; for dose inducing a hypolocomotor effect in the SLA: i.p.; for effect on total distance (locomotion), 30 min: Dunnett's test
[9] = target: T1, α1β3γ2 GABAA receptors; format: cell-based
[10] = target: T2, α2β3γ2 GABAA receptors; format: cell-based; settings: for % of control current, α2β3γ2: 100 nM, EC3 GABA, mean ± SEM, 0.1 µM
[11] = target: T3, α3β3γ2 GABAA receptors; format: cell-based; settings: for remaining activity at 0.1 µM: read-out: % of control current, α3β3γ2, 100 nM, EC3 GABA, mean ± SEM
[12] = target: T4, α5β3γ2 GABAA receptors; format: cell-based; settings: for % of control current, α5β3γ2: 100 nM, EC3 GABA, mean ± SEM
[13] = target: human GABAA receptor containing α3 subunit (BZ site) (Homo sapiens, UniProt P18507+P34903); test: Competition binding assay with [3H]flunitrazepam; settings: read-out: Ki α3, transfected HEK 293T, duplicate
[14] = target: human GABAA receptor containing α5 subunit (BZ site) (Homo sapiens, UniProt P18507+P31644); test: Competition binding assay with [3H]flunitrazepam
[15] = target: human GABAA receptor containing α6 subunit (BZ site) (Homo sapiens, UniProt P18507+Q16445); test: Competition binding assay with [3H]flunitrazepam; settings: read-out: Ki α6, transfected HEK 293T, duplicate
[16] = test system: male Wistar rats; settings: ref Savić et al., 2008b, cited from earlier work
[17] = test system: male Wistar rats; settings: 30 mg/kg; ref Savić et al., 2008b; cited from earlier work
[18] = read-out: % of control current, α1β3γ2
[19] = zolpidem 0.5 mg/kg during acquisition, ±SEM
[20] = zolpidem 1.0 mg/kg during acquisition, ±SEM
[21] = zolpidem 2.0 mg/kg during acquisition, ±SEM
[22] = zolpidem 2.0 mg/kg during acquisition, ±SEM, P<0.05 vs ZOL 0.5

C#Cc1ccc2c(c1)C(c1ccccn1)=NCc1c(C(=O)OCC)ncn1-2 [SH-053-2'N, 8-ethynyl-6-(2’-pyrydine)-4H-2,5,10b-triaza-benzo[e]azulene-3-carboxylic acid ethyl ester]
effect on percentage of time on open arms ([1]; 30 mg/kg i.p.): effective treatments | effect on total arm entries ([1]; 10, 20 and 30 mg/kg i.p., Dunnett's test vs solvent): significant effect of the two higher doses | effect on distance travelled in the open arms ([1]; 10, 20 and 30 mg/kg i.p., overall treatment effect): no significant effect of treatment | effect on percentage of open arm entries ([1]; 10, 20 and 30 mg/kg i.p., post hoc test): neither of the single doses was significant on its own | latency to find the platform, single day ([2]; 30 mg/kg i.p., vs control or SH-053-S-CH3-2'F 30 mg/kg): significantly longer search time on the fourth day | platform zone entries during the probe trial [2]: lack of incapacitating consequences | Ki [3]: > 5 µM | % of control current, α1β3γ2 [4]: 113 ± 2% | % of control current, α2β3γ2 [5]: 165 ± 2% | % of control current, α3β3γ2 [6]: 149 ± 3% | % of control current, α5β3γ2 [7]: 130 ± 3% | effect on total distance travelled during 45 min ([8]; 30 mg/kg i.p.): activity-depressing effect of all three treatments was significant | dose inducing a hypolocomotor effect in the SLA [8]: 30 mg/kg

CN1C(=O)CN=C(c2ccccc2)c2cc(Cl)ccc21 [diazepam]
remaining activity at 0.1 µM [9, 18]: 246 ± 16% | remaining activity at 0.1 µM ([10]; read-out: % of control current, α2β3γ2, 100 nM, EC3 GABA, mean ± SEM): 400 ± 22% | remaining activity at 0.1 µM [11]: 461 ± 34% | remaining activity at 0.1 µM ([12]; read-out: % of control current, α5β3γ2, 100 nM, EC3 GABA, mean ± SEM): 322 ± 7% | effect on percentage of time on open arms ([1]; 2.0 mg/kg i.p.): effective treatments | effect on total distance travelled during 45 min ([8]; 1.25 mg/kg i.p.): activity-depressing effect of all three treatments was significant | effect on distance travelled in 5-min bins ([8]; 2 mg/kg i.p.): induced overt sedation during the first 10 min of recording | effect on total distance (locomotion), 30 min ([8]; 2 mg/kg i.p.): significantly depressed locomotion

C#Cc1ccc2c(c1)C(c1ccccc1F)=NC(C)c1c(C(=O)OCC)ncn1-2 (centres unmarked) [SH-053-R-CH3-2'F, 8-ethynyl-6-(2-fluorophenyl)-4-methyl-4H-2,5,10b-triaza-benzo[e]azulene-3-carboxylic acid ethyl ester]
remaining activity at 0.1 µM [9, 18]: 111 ± 2% | % of control current, α2β3γ2 [10]: 124 ± 9% | % of control current, α3β3γ2 ([11]; 100 nM, EC3 GABA, mean ± SEM, 0.1 µM): 125 ± 8% | % of control current, α5β3γ2 ([12]; 0.1 µM): 183 ± 7% | general activity- or anxiety-related parameters ([1]; doses up to 30 mg/kg i.p.): completely devoid of changes | platform zone entries during the probe trial [2]: lack of incapacitating consequences | effect on total distance (locomotion), 30 min ([8]; 30 mg/kg i.p.): significantly depressed locomotion | effect on distance travelled in 5-min bins ([8]; 10, 20 and 30 mg/kg i.p., 6 intervals): did not significantly decrease locomotion | effect on central and peripheral zone locomotion ([8]; 20 and 30 mg/kg i.p.): decreased central, but not peripheral locomotion

C#Cc1ccc2c(c1)C(c1ccccc1F)=NCc1c(C(=O)OCC)ncn1-2 [JY-XHe-053, 8-ethynyl-6-(2-fluorophenyl)-4H-2,5,10b-triaza-benzo[e]azulene-3-carboxylic acid ethyl ester]
Ki [13]: 0.0349 µM | binding selectivity for GABAA receptors containing the α5 subunit ([14]; from Ki values): approximately 18 fold | general activity and anxiety-related parameters ([1]; 2.5-40 mg/kg i.p.): devoid of significant behavioral activity | % of control current, α1β3γ2 [4]: 169% | % of control current, α2β3γ2 [5]: 307 ± 14% | % of control current, α3β3γ2 [6]: 345 ± 26% | % of control current, α5β3γ2 [7]: 220% | effect on central zone activity ([8]; 2.5-40 mg/kg i.p., 30 min): not discernible | effect on peripheral zone distance ([8]; 2.5-40 mg/kg i.p., 30 min, vs control): three higher doses of JYXHe-053 were significantly different from control | dose inducing a hypolocomotor effect in the SLA [8]: ≥ 10 mg/kg

C#Cc1ccc2c(c1)C(c1ccccc1F)=NC(C)c1c(C(=O)OCC)ncn1-2 (centres unmarked) [SH-053-S-CH3-2'F, 8-ethynyl-6-(2-fluorophenyl)-4-methyl-4H-2,5,10b-triaza-benzo[e]azulene-3-carboxylic acid ethyl ester]
Ki [15]: > 5 µM | % of control current, α1β3γ2 ([9]; 100 nM, EC3 GABA, mean ± SEM): non-significant changes relative to control current | remaining activity at 1 µM [9, 18]: 164 ± 6% | % of control current, α2β3γ2 [10]: 169 ± 5% | remaining activity at 0.1 µM [11]: 138 ± 5% | % of control current, α5β3γ2 ([12]; 0.1 µM): 218 ± 4% | platform zone entries during the probe trial [2]: lack of incapacitating consequences | effect on locomotor activity ([16]; 30 mg/kg): significant decrease of locomotor activity | dose inducing a hypolocomotor effect in the SLA [16]: 30 mg/kg | effect on percentage of open arm entries [17]: significant effect | effect on percentage of time on open arms [17]: significant effect | effects on general activity-related parameters [17]: without concomitant effects

Cc1ccc(-c2nc3ccc(C)cn3c2CC(=O)N(C)C)cc1 [zolpidem]
Ki ([14]; read-out: Ki α5, [3H]flunitrazepam, transfected HEK 293T, duplicate): > 10 µM | remaining activity at 0.1 µM [9, 18]: 180 ± 14% | % of control current, α5β3γ2 [12]: non-significant changes relative to control current | overall influence on water maze learning parameters (acquisition) ([2]; 0.5 mg/kg i.p. daily, vs control): different related to control | percent of distance travelled in the NE quadrant that was in the target region ([2]; 2 mg/kg i.p., day 5 of acquisition, chance 40%): 40.5% | overall influence on water maze learning parameters (acquisition) ([2]; 1 and 2 mg/kg i.p. daily, vs 0.5 mg/kg): behaviorally impaired related to 0.5 mg/kg zolpidem | Peripheral ring distance, probe trial [2, 19]: 4.16±0.61 m | Peripheral ring time, probe trial [2, 19]: 33.48 ± 3.68 s | Platform distance, probe trial [2, 19]: 0.097±0.031 m | Platform number of entries, probe trial [2, 19]: 1.25±0.41 | Platform quadrant (NE) distance, probe trial [2, 19]: 2.41±0.29 m | Platform quadrant (NE) time, probe trial [2, 19]: 11.86 ± 1.44 s | Platform ring distance, probe trial [2, 19]: 5.27±0.68 m | Platform ring time, probe trial [2, 19]: 21.46 ± 3.05 s | Target region distance, probe trial [2, 19]: 1.51±0.27 m | Target region time, probe trial [2, 19]: 7.26 ± 1.36 s | Peripheral ring distance, probe trial [2, 20]: 6.09±0.89 m | Peripheral ring time, probe trial [2, 20]: 39.86 ± 1.67 s | Platform distance, probe trial [2, 20]: 0.047±0.028 m | Platform number of entries, probe trial [2, 20]: 0.38±0.18 | Platform quadrant (NE) distance, probe trial [2, 20]: 2.18±0.51 m | Platform ring distance, probe trial [2, 20]: 4.48±0.31 m | Platform ring time, probe trial [2, 20]: 17.31 ± 1.38 s | Target region distance, probe trial [2, 20]: 1.12±0.14 m | Target region time, probe trial ([2]; zolpidem 1.0 mg/kg during acquisition, ±SEM, P<0.05 vs ZOL 0.5): 4.03 ± 0.52 s | Peripheral ring time, probe trial [2, 21]: 42.80 ± 3.35 s | Platform distance, probe trial [2, 21]: 0.053±0.023 m | Platform number of entries, probe trial [2, 21]: 0.50±0.19 | Platform quadrant (NE) distance, probe trial [2, 21]: 2.22±0.44 m | Platform ring distance, probe trial [2, 21]: 4.00±0.65 m | Platform ring time, probe trial [2, 21]: 14.50 ± 2.60 s | Target region distance, probe trial [2, 21]: 0.99±0.22 m | Peripheral ring distance, probe trial [2, 22]: 7.85±0.82 m | Target region time, probe trial [2, 22]: 3.51 ± 0.76 s

Reference: publication PMC2859624 (Progress in neuro-psychopharmacology & biological psychiatry, 2010)
